Experimental data from US20080050354A1, “PROTECTING BIOACTIVE FOOD INGREDIENTS USING MICROORGANISMS HAVING REDUCED METABOLIZING CAPACITY” (COMPAGNIE GERVAIS DANONE, priority 2004, published 2008).
Entries after “also recorded” stand apart in the source; their conditions may differ. Like-named read-outs stand apart in the source and are kept apart here. Residues, ends and D or L forms follow the SMILES beside them.

Tests used:
pathogenic strains [1] = conditions: in vitro; cited from earlier work
[2] = test system: mouse peritoneal macrophages; conditions: in vitro; cited from earlier work
[3] = cited from earlier work
small intestine motility = conditions: 10 g/300 ml water via intragastric probe; cancelled with naloxone; cited from earlier work
platelet aggregation = conditions: in vitro; cited from earlier work
pathogenic strains [4] = conditions: in vitro; cited from earlier work; remark: listed apart in the source
Staphylococcus aureus [5] = conditions: Mice, IM injection; cited from earlier work
Staphylococcus aureus [6] = conditions: sheep, IM injection; cited from earlier work
[7] = Storage of fermented product thermized at 75° C. for 1 minute; conditions: thermized 75° C., about 1 minute
Procedure: FIG. 5: Curves illustrating the change in the residual content of bioactive peptide αS1 [91-100], added after fermentation in a fermented product and then thermized at 75° C. for 1 minute, and stored at 10° C. up to the expiry date.
(FIG. 5), but at the expense of the overall quality of the finished product. Specifically, this solution has many drawbacks: • the thermization of a fermented dairy mass entails the use of stabilizers added before the heat treatment (pectins, starches, carrageenans, etc.), which complicates the process and substantially increases the cost of the formula; • the industrial manufacturing line is more complex and requires a larger specific investment; • the product no longer benefits from appellations associated with products containing live ferments (such as yogurt) and as a result loses the benefits associated with the consumption of lactic ferments; • the organoleptic impact (generally negative) is substantial.

Lactoferricin
growth of pathogenic strains (pathogenic strains [1]): Inhibition of growth

191-193 casein: Bovine β-casein fragment 191-193 (LLY; UniProt P02666 206-208, looked up, fragment)
effect on mouse peritoneal macrophages [2]: Stimulation of mouse | in vivo protection [3]: No in vivo protection

Casein
small intestine motility (small intestine motility): intragastric probe: inhibition

Peptide 106-116 of bovine κ-casein: Peptide 106-116 of bovine κ-casein (MAIPPKKNQDK; UniProt P02668 127-137, looked up, fragment)
platelet aggregation (platelet aggregation): Inhibition of

CC[C@H](C)[C@H](NC(=O)[C@@H]1CCCN1C(=O)[C@H](Cc1cnc[nH]1)NC(=O)[C@H](CCCCN)NC(=O)[C@@H]1CCCN1C(=O)[C@@H](N)CCCNC(=N)N)C(=O)N[C@@H](CCCCN)C(=O)N[C@@H](Cc1cnc[nH]1)C(=O)N[C@@H](CCC(N)=O)C(=O)NCC(=O)N[C@@H](CC(C)C)C(=O)N1CCC[C@H]1C(=O)N[C@@H](CCC(N)=O)C(=O)N[C@@H](CCC(=O)O)C(=O)N[C@H](C(=O)N[C@@H](CC(C)C)C(=O)N[C@@H](CC(N)=O)C(=O)N[C@@H](CCC(=O)O)C(=O)N[C@@H](CC(N)=O)C(=O)N[C@@H](CC(C)C)C(=O)N[C@@H](CC(C)C)C(=O)N[C@@H](CCCNC(=N)N)C(=O)N[C@@H](Cc1ccccc1)C(=O)O)C(C)C [isracidin] (H-RPKHPIKHQGLPQEVLNENLLRF-OH)
growth of pathogenic strains (pathogenic strains [4]): Inhibition of growth | efficacy against Staphylococcus aureus (Staphylococcus aureus [5]): Mice, sheep: effective in IM | efficacy against Staphylococcus aureus (Staphylococcus aureus [6]): Mice, sheep: effective in IM

peptide αS1 [91-100]: fragment 91-100 of casein αS1; peptide with relaxing properties contained in the milk protein hydrolyzate Lactium® (Ingredia) (YLGYLEQLLR; UniProt P02662 106-115, looked up, fragment)
stability of the peptide after heat treatment of the fermented product [7]: possible to ensure the stability; also recorded: possible to preserve
